Key:
Assay in all cases: Kinase Profiling (KINOMEscan)
Format in all cases: binding
[1] = target: 456 kinases (of these 395 non-mutant kinases) (Homo sapiens, UniProt O76039); details: CDKL5; 10 μM
[2] = target: 456 kinases (of these 395 non-mutant kinases) (Homo sapiens, UniProt O94921); details: PFTK1; 10 μM
[3] = target: 456 kinases (of these 395 non-mutant kinases) (Homo sapiens, UniProt O95819); details: MAP4K4; 10 μM
[4] = target: 456 kinases (of these 395 non-mutant kinases) (Homo sapiens, UniProt P00519, Q252H); details: 10 μM
[5] = target: 456 kinases (of these 395 non-mutant kinases) (Homo sapiens, UniProt P00519, T315I); details: 10 μM
[6] = target: 456 kinases (of these 395 non-mutant kinases) (Homo sapiens, UniProt P10721); details: 10 μM
Sequence of 456 kinases (of these 395 non-mutant kinases) (Homo sapiens, UniProt P10721) (P10721 26-976 limits assumed, change not shown): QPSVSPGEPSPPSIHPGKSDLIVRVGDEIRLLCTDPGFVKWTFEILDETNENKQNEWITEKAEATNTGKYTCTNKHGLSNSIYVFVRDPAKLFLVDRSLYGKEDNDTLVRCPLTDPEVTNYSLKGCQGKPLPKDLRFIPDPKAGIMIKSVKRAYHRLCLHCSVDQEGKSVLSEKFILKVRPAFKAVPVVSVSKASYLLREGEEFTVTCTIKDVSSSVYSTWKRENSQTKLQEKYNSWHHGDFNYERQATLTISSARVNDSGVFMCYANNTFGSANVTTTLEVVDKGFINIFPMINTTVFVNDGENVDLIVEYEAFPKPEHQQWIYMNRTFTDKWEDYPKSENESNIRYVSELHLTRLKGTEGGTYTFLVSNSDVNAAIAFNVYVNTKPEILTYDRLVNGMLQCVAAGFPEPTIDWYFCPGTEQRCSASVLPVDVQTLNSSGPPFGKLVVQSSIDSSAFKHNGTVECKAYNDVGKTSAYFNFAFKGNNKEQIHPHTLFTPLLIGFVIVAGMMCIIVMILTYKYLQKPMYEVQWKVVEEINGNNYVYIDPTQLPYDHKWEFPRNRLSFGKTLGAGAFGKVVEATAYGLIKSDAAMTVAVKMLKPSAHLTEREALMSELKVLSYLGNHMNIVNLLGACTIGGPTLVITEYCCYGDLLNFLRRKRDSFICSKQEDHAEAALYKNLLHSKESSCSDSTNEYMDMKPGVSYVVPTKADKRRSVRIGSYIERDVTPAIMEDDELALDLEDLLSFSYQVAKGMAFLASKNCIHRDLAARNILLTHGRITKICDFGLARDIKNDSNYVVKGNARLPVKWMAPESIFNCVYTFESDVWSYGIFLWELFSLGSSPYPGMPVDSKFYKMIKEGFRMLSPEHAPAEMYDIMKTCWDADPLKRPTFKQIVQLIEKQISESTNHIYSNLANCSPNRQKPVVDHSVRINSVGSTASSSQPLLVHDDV

[7] = target: 456 kinases (of these 395 non-mutant kinases) (Homo sapiens, UniProt P31152); details: ERK4; 10 μM
[8] = target: 456 kinases (of these 395 non-mutant kinases) (Homo sapiens, UniProt P32298); details: GRK4; 10 μM
[9] = target: 456 kinases (of these 395 non-mutant kinases) (Homo sapiens, UniProt P42336); details: PIK3CA; 10 μM
[10] = target: 456 kinases (of these 395 non-mutant kinases) (Homo sapiens, UniProt P42336, E545A); details: PIK3CA(E545A); 10 μM
[11] = target: 456 kinases (of these 395 non-mutant kinases) (Homo sapiens, UniProt P48729); details: CSNK1A1; 10 μM
Sequence of 456 kinases (of these 395 non-mutant kinases) (Homo sapiens, UniProt P48729) (P48729 2-337 limits assumed, change not shown): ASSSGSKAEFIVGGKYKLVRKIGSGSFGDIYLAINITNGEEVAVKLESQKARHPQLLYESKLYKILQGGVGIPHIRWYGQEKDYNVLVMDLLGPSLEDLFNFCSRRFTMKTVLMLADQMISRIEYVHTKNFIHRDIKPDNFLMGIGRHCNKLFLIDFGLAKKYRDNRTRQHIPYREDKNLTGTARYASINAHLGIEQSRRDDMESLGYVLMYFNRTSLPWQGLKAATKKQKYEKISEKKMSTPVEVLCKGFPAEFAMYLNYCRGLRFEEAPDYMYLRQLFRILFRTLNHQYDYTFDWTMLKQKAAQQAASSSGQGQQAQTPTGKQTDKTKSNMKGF

[12] = target: 456 kinases (of these 395 non-mutant kinases) (Homo sapiens, UniProt P51812); details: 10 μM
[13] = target: 456 kinases (of these 395 non-mutant kinases) (Homo sapiens, UniProt Q00526); details: CDK3; 10 μM
[14] = target: 456 kinases (of these 395 non-mutant kinases) (Homo sapiens, UniProt Q07002); details: PCTK3; 10 μM
[15] = target: 456 kinases (of these 395 non-mutant kinases) (Homo sapiens, UniProt Q13153); details: PAK1; 10 μM
Sequence of 456 kinases (of these 395 non-mutant kinases) (Homo sapiens, UniProt Q13153) (Q13153 2-545 limits assumed, change not shown): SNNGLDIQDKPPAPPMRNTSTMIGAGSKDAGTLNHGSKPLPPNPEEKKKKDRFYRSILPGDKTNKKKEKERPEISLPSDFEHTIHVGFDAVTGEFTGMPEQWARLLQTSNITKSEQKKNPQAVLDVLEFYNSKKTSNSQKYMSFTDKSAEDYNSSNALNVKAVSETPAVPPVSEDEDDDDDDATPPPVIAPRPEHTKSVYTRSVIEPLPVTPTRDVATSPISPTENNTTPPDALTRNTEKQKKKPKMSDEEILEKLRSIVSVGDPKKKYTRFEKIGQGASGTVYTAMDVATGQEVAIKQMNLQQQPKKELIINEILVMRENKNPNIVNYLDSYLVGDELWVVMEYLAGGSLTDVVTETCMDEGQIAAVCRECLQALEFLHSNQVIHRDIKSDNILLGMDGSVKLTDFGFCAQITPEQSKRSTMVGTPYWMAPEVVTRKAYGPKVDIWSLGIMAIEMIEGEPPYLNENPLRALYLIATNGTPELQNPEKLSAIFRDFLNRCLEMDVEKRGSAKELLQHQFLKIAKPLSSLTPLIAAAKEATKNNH

[16] = target: 456 kinases (of these 395 non-mutant kinases) (Homo sapiens, UniProt Q13163); details: MEK5; 10 μM
[17] = target: 456 kinases (of these 395 non-mutant kinases) (Homo sapiens, UniProt Q13546); details: RIPK1; 10 μM
[18] = target: 456 kinases (of these 395 non-mutant kinases) (Homo sapiens, UniProt Q13705); details: ACVR2B; 10 μM
Sequence of 456 kinases (of these 395 non-mutant kinases) (Homo sapiens, UniProt Q13705) (Q13705 19-512 limits assumed, change not shown): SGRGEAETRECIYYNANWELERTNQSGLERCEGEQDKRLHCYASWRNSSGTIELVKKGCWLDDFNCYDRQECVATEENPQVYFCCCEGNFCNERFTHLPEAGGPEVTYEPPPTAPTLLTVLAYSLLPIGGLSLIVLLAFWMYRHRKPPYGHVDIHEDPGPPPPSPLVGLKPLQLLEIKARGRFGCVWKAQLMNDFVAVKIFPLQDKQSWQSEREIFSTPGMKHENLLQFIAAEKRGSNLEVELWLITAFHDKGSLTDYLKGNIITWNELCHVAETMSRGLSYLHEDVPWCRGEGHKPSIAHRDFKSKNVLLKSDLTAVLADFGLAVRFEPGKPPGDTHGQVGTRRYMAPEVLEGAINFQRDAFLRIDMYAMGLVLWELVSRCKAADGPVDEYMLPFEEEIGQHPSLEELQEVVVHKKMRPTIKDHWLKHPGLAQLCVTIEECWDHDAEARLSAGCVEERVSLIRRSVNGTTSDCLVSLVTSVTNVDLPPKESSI

[19] = target: 456 kinases (of these 395 non-mutant kinases) (Homo sapiens, UniProt Q15303); details: ERBB4; 10 μM
Sequence of 456 kinases (of these 395 non-mutant kinases) (Homo sapiens, UniProt Q15303) (Q15303 26-1308 limits assumed, change not shown): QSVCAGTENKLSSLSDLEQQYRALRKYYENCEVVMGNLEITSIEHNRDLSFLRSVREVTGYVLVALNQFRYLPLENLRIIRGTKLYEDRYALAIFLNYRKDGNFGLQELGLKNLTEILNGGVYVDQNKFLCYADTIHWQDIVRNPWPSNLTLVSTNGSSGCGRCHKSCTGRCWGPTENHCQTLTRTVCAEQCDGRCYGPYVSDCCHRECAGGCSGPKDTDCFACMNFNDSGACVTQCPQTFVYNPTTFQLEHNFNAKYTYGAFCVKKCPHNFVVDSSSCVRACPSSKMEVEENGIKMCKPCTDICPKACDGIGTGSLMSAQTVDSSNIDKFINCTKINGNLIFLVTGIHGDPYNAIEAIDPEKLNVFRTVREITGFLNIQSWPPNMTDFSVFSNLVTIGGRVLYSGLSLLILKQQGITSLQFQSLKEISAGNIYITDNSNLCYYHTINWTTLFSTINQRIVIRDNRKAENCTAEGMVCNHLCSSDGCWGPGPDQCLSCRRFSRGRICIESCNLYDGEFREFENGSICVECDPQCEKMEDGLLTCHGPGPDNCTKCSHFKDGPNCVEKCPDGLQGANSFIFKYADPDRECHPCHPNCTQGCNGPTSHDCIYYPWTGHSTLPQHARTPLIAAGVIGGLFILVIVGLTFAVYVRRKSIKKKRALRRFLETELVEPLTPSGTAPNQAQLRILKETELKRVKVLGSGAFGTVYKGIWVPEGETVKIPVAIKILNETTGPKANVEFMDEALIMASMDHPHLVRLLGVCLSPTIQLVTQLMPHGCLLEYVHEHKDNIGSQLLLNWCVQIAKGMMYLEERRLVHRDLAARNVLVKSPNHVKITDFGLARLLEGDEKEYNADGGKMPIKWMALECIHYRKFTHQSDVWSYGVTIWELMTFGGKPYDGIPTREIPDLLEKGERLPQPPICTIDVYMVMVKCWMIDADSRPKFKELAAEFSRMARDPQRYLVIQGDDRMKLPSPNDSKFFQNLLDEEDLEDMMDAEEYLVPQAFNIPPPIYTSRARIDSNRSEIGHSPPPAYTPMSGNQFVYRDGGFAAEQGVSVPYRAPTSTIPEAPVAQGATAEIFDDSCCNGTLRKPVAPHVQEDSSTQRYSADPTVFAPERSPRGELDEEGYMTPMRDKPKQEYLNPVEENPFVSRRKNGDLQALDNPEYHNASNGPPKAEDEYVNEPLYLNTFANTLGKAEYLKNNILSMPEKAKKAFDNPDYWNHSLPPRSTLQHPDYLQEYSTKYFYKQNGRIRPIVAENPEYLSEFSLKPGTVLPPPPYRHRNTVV

[20] = target: 456 kinases (of these 395 non-mutant kinases) (Homo sapiens, UniProt Q16288); details: TRKC; 10 μM
[21] = target: 456 kinases (of these 395 non-mutant kinases) (Homo sapiens, UniProt Q16566); details: CAMK4; 10 μM
[22] = target: 456 kinases (of these 395 non-mutant kinases) (Homo sapiens, UniProt Q5S007, G2019S); details: LRRK2(G2019S); 10 μM
[23] = target: 456 kinases (of these 395 non-mutant kinases) (Homo sapiens, UniProt Q86Y07); details: VRK2; 10 μM
[24] = target: 456 kinases (of these 395 non-mutant kinases) (Homo sapiens, UniProt Q8IYT8); details: ULK2; 10 μM
[25] = target: 456 kinases (of these 395 non-mutant kinases) (Homo sapiens, UniProt Q8N752); details: CSNK1A1L; 10 μM
[26] = target: 456 kinases (of these 395 non-mutant kinases) (Homo sapiens, UniProt Q8TDX7); details: NEK7; 10 μM
[27] = target: 456 kinases (of these 395 non-mutant kinases) (Homo sapiens, UniProt Q9NQU5); details: PAK6; 10 μM
[28] = target: 456 kinases (of these 395 non-mutant kinases) (Homo sapiens, UniProt Q9P1W9); details: PIM2; 10 μM
[29] = target: 456 kinases (of these 395 non-mutant kinases) (Homo sapiens, UniProt Q9P2K8, S808G); details: GCN2(Kin.Dom.2,S808G); 10 μM
[30] = target: 456 kinases (of these 395 non-mutant kinases) (Homo sapiens, UniProt Q9UKE5); details: TNIK; 10 μM
[31] = target: 456 kinases (of these 395 non-mutant kinases) (Homo sapiens, UniProt Q9UPZ9); details: ICK; 10 μM

Sequence of 456 kinases (of these 395 non-mutant kinases) (Homo sapiens, UniProt O95819) (O95819 2-1239 limits assumed, stated change not applied): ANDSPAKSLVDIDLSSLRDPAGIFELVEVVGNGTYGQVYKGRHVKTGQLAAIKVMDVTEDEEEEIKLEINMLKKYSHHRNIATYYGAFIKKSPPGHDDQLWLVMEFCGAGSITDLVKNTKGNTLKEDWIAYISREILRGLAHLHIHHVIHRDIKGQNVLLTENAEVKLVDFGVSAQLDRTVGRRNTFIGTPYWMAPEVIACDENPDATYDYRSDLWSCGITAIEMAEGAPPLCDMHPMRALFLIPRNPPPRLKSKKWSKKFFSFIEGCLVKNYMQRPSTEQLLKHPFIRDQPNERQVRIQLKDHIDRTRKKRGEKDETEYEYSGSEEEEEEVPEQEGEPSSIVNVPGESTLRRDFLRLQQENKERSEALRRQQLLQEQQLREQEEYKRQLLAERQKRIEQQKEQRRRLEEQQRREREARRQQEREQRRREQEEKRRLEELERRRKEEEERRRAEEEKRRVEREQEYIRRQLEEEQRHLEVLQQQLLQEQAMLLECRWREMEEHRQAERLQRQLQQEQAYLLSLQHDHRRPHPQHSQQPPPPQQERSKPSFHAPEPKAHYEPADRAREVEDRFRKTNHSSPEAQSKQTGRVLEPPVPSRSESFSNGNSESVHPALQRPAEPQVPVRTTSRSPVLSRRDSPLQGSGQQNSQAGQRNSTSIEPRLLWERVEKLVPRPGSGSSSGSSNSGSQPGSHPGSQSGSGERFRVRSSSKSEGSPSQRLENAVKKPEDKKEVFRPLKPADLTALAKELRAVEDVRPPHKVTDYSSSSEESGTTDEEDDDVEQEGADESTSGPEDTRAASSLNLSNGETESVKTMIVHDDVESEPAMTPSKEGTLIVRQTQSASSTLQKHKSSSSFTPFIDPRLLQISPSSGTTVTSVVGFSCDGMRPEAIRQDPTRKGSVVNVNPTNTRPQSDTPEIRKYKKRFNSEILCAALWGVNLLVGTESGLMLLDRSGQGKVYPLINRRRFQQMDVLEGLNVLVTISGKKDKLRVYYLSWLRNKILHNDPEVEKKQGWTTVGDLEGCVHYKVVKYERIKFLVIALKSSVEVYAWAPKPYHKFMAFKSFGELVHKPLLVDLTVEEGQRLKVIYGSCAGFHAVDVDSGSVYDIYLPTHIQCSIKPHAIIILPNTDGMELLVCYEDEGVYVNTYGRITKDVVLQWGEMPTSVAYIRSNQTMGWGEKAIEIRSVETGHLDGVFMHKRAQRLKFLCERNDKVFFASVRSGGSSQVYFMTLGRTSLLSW

CCc1ccccc1NC(=O)c1c(C)nsc1Nc1cnc2cc(F)ccc2n1 [Example 20, N-(2-Ethylphenyl)-5-[(6-fluoroquinoxalin-2-yl)amino]-3-methyl-1,2-thiazole-4-carboxamide]
% Ctrl @ 10 μM [1]: 100 % Ctrl
% Ctrl @ 10 μM [2]: 93 % Ctrl
% Ctrl @ 10 μM [3]: 100 % Ctrl
% Ctrl @ 10 μM ([4]; ABL1(Q252H)-nonphosphorylated): 100 % Ctrl
% Ctrl @ 10 μM ([4]; ABL1(Q252H)-phosphorylated): 100 % Ctrl
% Ctrl @ 10 μM ([5]; ABL1(T315I)-nonphosphorylated): 100 % Ctrl
% Ctrl @ 10 μM ([5]; ABL1(T315I)-phosphorylated): 87 % Ctrl
% Ctrl @ 10 μM ([6]; KIT-autoinhibited): 100 % Ctrl
% Ctrl @ 10 μM ([6]; KIT): 98 % Ctrl
% Ctrl @ 10 μM [7]: 88 % Ctrl
% Ctrl @ 10 μM [8]: 77 % Ctrl
% Ctrl @ 10 μM [9]: 100 % Ctrl
% Ctrl @ 10 μM [10]: 95 % Ctrl
% Ctrl @ 10 μM [11]: 92 % Ctrl
% Ctrl @ 10 μM ([12]; RSK2(Kin.Dom.1-N-terminal)): 100 % Ctrl
% Ctrl @ 10 μM ([12]; RSK2(Kin.Dom.2-C-terminal)): 100 % Ctrl
% Ctrl @ 10 μM [13]: 100 % Ctrl
% Ctrl @ 10 μM [14]: 82 % Ctrl
% Ctrl @ 10 μM [15]: 100 % Ctrl
% Ctrl @ 10 μM [16]: 100 % Ctrl
% Ctrl @ 10 μM [17]: 99 % Ctrl
% Ctrl @ 10 μM [18]: 91 % Ctrl
% Ctrl @ 10 μM [19]: 100 % Ctrl
% Ctrl @ 10 μM [20]: 93 % Ctrl
% Ctrl @ 10 μM [21]: 100 % Ctrl
% Ctrl @ 10 μM [22]: 92 % Ctrl
% Ctrl @ 10 μM [23]: 100 % Ctrl
% Ctrl @ 10 μM [24]: 100 % Ctrl
% Ctrl @ 10 μM [25]: 100 % Ctrl
% Ctrl @ 10 μM [26]: 79 % Ctrl
% Ctrl @ 10 μM [27]: 100 % Ctrl
% Ctrl @ 10 μM [28]: 100 % Ctrl
% Ctrl @ 10 μM [29]: 100 % Ctrl
% Ctrl @ 10 μM [30]: 100 % Ctrl
% Ctrl @ 10 μM [31]: 100 % Ctrl

Source: patent US9682995B2, “Amino-substituted isothiazoles” (BAYER PHARMA AKTIENGESELLSCHAFT, priority 2013, dated 2017)
